According to patent US12152035B2, “Androgen receptor binding molecule and use thereof” (Industrial Technology Research Institute, priority 2020, dated 2024):

Tests used:
Format in all cases: cell-based
[1] = tested on: full-length androgen receptor; assay: Western blot: degradation of full-length androgen receptor in CWR22RV1 cells; conditions: overnight
How it was run: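 CWR22Rv1 cells (5×10^5 per well) seeded overnight in RPMI with 10% FBS at 37 °C, 5% CO2, then given fresh medium and compound at various concentrations overnight. Lysates analysed by Western blot for full-length AR and AR-V7, with GAPDH as loading control.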

[2] = tested on: CWR22RV1 cells; assay: Cytotoxicity assay (AlamarBlue, 72 hours); conditions: 72 hours treatment, concentration not given
How it was run: (§1)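 CWR22Rv1 or VCaP cells in RPMI-1640 with 10% FBS were seeded at 1×10^4 cells/well. Next day they were treated with compound, test samples at 100, 10, 1 and 0.1 μM, giving 1% DMSO final. After 72 h, AlamarBlue was added for 4 h, fluorescence was read at Ex/Em 560/590 nm, and % cytotoxicity was calculated.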

[3] = tested on: VCaP cells; assay: Cytotoxicity assay (AlamarBlue, 72 hours); conditions: 72 hours treatment, concentration not given
How it was run: as §1

[4] = compound concentration 0.1 (unit not given)
[5] = compound concentration 1 (unit not given)
[6] = compound concentration 10 (unit not given)

## O=C1CCC(N2Cc3cc(C4=CCN(C(=O)COCCCCOc5ccc(C6CCN(C7=Nn8c(nnc8C(F)(F)F)CC7)CC6)cc5)CC4)ccc3C2=O)C(=O)N1 (stereo not shown) [Compound 40, 3-(1-oxo-5-(1-(2-(4-(4-(1-(3-(trifluoromethyl)-7,8-dihydro-[1,2,4]triazolo[4,3-b]pyridazin-6-yl)piperidin-4-yl)phenoxy)butoxy)acetyl)-1,2,3,6-tetrahydropyridin-4-yl)isoindolin-2-yl)piperidine-2,6-dione]
[1]; [4]
  Degradation ability for full-length androgen receptor (residual rate %): + (60-80%: +)
[1]; [5]
  Degradation ability for full-length androgen receptor (residual rate %): + (60-80%: +)
[1]; [6]
  Degradation ability for full-length androgen receptor (residual rate %): +++ (<40%: +++)
[2]
  Cytotoxicity, CWR22RV1 cells (cell viability %): ++ (40-60% : ++)
[3]
  Cytotoxicity, VCaP cells (cell viability %): ++ (40-60% : ++)

## O=C1CCC(N2Cc3cc(C#CCOCCCCOc4ccc(C5CCN(C6=Nn7c(nnc7C(F)(F)F)CC6)CC5)cc4)ccc3C2=O)C(=O)N1 (stereo not shown) [Compound 42]
[1]; [4]
  Degradation ability for full-length androgen receptor (residual rate %): − (>80%; −)
[1]; [5]
  Degradation ability for full-length androgen receptor (residual rate %): − (>80%; −)
[1]; [6]
  Degradation ability for full-length androgen receptor (residual rate %): + (60-80%: +)
[2]
  Cytotoxicity, CWR22RV1 cells (cell viability %): + (60-80% : +)
[3]
  Cytotoxicity, VCaP cells (cell viability %): + (60-80% : +)

## Cc1ncsc1-c1ccc(CNC(=O)[C@@H]2C[C@H](O)CN2C(=O)[C@@H](NC(=O)COCCCCOc2ccc(C(=O)NC3C(C)(C)C(Oc4ccc5nnc(C(F)(F)F)n5n4)C3(C)C)cc2)C(C)(C)C)cc1 (stereo partly shown) [Compound 53, 1-(3,3-dimethyl-2-(2-(4-(4-(((1r,3r)-2,2,4,4-tetramethyl-3-((3-(trifluoromethyl)-[1,2,4]triazolo[4,3-b]pyridazin-6-yl)oxy)cyclobutyl)carbamoyl)phenoxy)butoxy)acetamido)butanoyl)-4-hydroxy-N-(4-(4-methylthiazol-5-yl)benzyl)pyrrolidine-2-carboxamide]
[1]; [4]
  Degradation ability for full-length androgen receptor (residual rate %): − (>80%; −)
[1]; [5]
  Degradation ability for full-length androgen receptor (residual rate %): +++ (<40%: +++)
[1]; [6]
  Degradation ability for full-length androgen receptor (residual rate %): +++ (<40%: +++)
[2]
  Cytotoxicity, CWR22RV1 cells (cell viability %): +++ (<40% : +++)
[3]
  Cytotoxicity, VCaP cells (cell viability %): +++ (<40% : +++)

## O=C1CCC(N2C(=O)c3cccc(N4CCC(CN5CCN(c6ccc(C(=O)N[C@H]7CC[C@H](Oc8ccc9nnc(C(F)(F)F)n9n8)CC7)cn6)CC5)CC4)c3C2=O)C(=O)N1 (stereo partly shown) [Compound 48, 6-(4-((1-(2-(2,6-dioxopiperidin-3-yl)-1,3-dioxoisoindolin-4-yl)piperidin-4-yl)methyl)piperazin-1-yl)-N-((1r,4r)-4-((3-(trifluoromethyl)-[1,2,4]triazolo[4,3-b]pyridazin-6-yl)oxy)cyclohexyl)nicotinamide]
[1]; [4]
  Degradation ability for full-length androgen receptor (residual rate %): − (>80%; −)
[1]; [5]
  Degradation ability for full-length androgen receptor (residual rate %): − (>80%; −)
[1]; [6]
  Degradation ability for full-length androgen receptor (residual rate %): − (>80%; −)
[2]
  Cytotoxicity, CWR22RV1 cells (cell viability %): − (<80% : −)
[3]
  Cytotoxicity, VCaP cells (cell viability %): − (<80% : −)

## Cc1ncsc1-c1ccc(CNC(=O)[C@@H]2C[C@H](O)CN2C(=O)[C@@H](NC(=O)COCCCCOc2ccc(C3CCN(c4ccc5nnc(C(F)(F)F)n5n4)CC3)cc2)C(C)(C)C)cc1 [Compound 37, (2S,4S)-1-((S)-3,3-dimethyl-2-(2-(4-(4-(1-(3-(trifluoromethyl)-[1,2,4]triazolo[4,3-b]pyridazin-6-yl)piperidin-4-yl)phenoxy)butoxy)acetamido)butanoyl)-4-hydroxy-N-(4-(4-methylthiazol-5-yl)benzyl)pyrrolidine-2-carboxamide]
[1]; [4]
  Degradation ability for full-length androgen receptor (residual rate %): − (>80%; −)
[1]; [5]
  Degradation ability for full-length androgen receptor (residual rate %): + (60-80%: +)
[1]; [6]
  Degradation ability for full-length androgen receptor (residual rate %): +++ (<40%: +++)
[2]
  Cytotoxicity, CWR22RV1 cells (cell viability %): +++ (<40% : +++)
[3]
  Cytotoxicity, VCaP cells (cell viability %): +++ (<40% : +++)

## Cc1ncsc1-c1ccc(CNC(=O)[C@@H]2C[C@H](O)CN2C(=O)[C@@H](NC(=O)COCCCCCCOc2ccc(C3CCN(C4=Nn5c(nnc5C(F)(F)F)CC4)CC3)cc2)C(C)(C)C)cc1 [Compound 22]
[1]; [4]
  Degradation ability for full-length androgen receptor (residual rate %): ++ (40-60%: ++)
[1]; [5]
  Degradation ability for full-length androgen receptor (residual rate %): +++ (<40%: +++)
[1]; [6]
  Degradation ability for full-length androgen receptor (residual rate %): +++ (<40%: +++)
[2]
  Cytotoxicity, CWR22RV1 cells (cell viability %): +++ (<40% : +++)
[3]
  Cytotoxicity, VCaP cells (cell viability %): +++ (<40% : +++)

## O=C1CCC(N2C(=O)c3cccc(NCC(=O)N4CCC(N5CCC(C#Cc6ccc(C7CCN(C8=Nn9c(nnc9C(F)(F)F)CC8)CC7)cc6)CC5)CC4)c3C2=O)C(=O)N1 (stereo not shown) [Compound 43, 2-(2,6-dioxopiperidin-3-yl)-4-((2-oxo-2-(4-((4-(1-(3-(trifluoromethyl)-7,8-dihydro-[1,2,4]triazolo[4,3-b]pyridazin-6-yl)piperidin-4-yl)phenyl)ethynyl)-[1,4′-bipiperidin]-1′-yl)ethyl)amino)isoindoline-1,3-dione]
[1]; [4]
  Degradation ability for full-length androgen receptor (residual rate %): ++ (40-60%: ++)
[1]; [5]
  Degradation ability for full-length androgen receptor (residual rate %): ++ (40-60%: ++)
[1]; [6]
  Degradation ability for full-length androgen receptor (residual rate %): ++ (40-60%: ++)
[2]
  Cytotoxicity, CWR22RV1 cells (cell viability %): +++ (<40% : +++)
[3]
  Cytotoxicity, VCaP cells (cell viability %): +++ (<40% : +++)

## CC1(C)[C@H](NC(=O)c2ccc(C#CC3CCN(c4cccc5c4C(=O)N(C4CCC(=O)NC4=O)C5=O)CC3)cc2)C(C)(C)[C@H]1Oc1ccc2nnc(C(F)(F)F)n2n1 (stereo partly shown) [Compound 46, 4-((1-(2-(2,6-dioxopiperidin-3-yl)-1,3-dioxoisoindolin-4-yl)piperidin-4-yl)ethynyl)-N-((1r,3r)-2,2,4,4-tetramethyl-3-((3-(trifluoromethyl)-[1,2,4]triazolo[4,3-b]pyridazin-6-yl)oxy)cyclobutyl)benzamide]
[1]; [4]
  Degradation ability for full-length androgen receptor (residual rate %): ++ (40-60%: ++)
[1]; [5]
  Degradation ability for full-length androgen receptor (residual rate %): ++ (40-60%: ++)
[1]; [6]
  Degradation ability for full-length androgen receptor (residual rate %): − (>80%; −)
[2]
  Cytotoxicity, CWR22RV1 cells (cell viability %): − (<80% : −)
[3]
  Cytotoxicity, VCaP cells (cell viability %): ++ (40-60% : ++)
